Measured values as given in ChEMBL document CHEMBL5523719, “Structure-activity relationship study of new carbazole sulfonamide derivatives as anticancer agents with dual-target mechanism” (Eur J Med Chem, 2024).
The source made the active and inactive calls. The calls are words filed in the database; no cut-off is given here.

Experiments:
[1] = Solubility of the compound; format: physicochemical
Bel-7402 = assay: Antiproliferation activity against human Bel-7402 cells measured after 72 hrs incubation by MTT assay; format: functional, cell-based; settings: Bel-7402, 72 h
MDA-MB-231 = assay: Antiproliferation activity against human MDA-MB-231 cells measured after 72 hrs incubation by MTT assay; format: functional, cell-based; settings: MDA-MB-231, 72 h
MIA PaCa-2 = assay: Antiproliferation activity against human MIA PaCa-2 cells measured after 72 hrs incubation by MTT assay; format: functional, cell-based; settings: MIA PaCa-2, 72 h
NCI-H460 = assay: Antiproliferation activity against human NCI-H460 cells measured after 72 hrs incubation by MTT assay; format: functional, cell-based; settings: NCI-H460, 72 h
KB = assay: Antiproliferation activity against human KB cells measured after 72 hrs incubation by MTT assay; format: functional, cell-based
L02 = assay: Antiproliferation activity against human L02 cells measured after 72 hrs incubation by MTT assay; format: functional, cell-based; settings: L02, 72 h
MCF7 [2] = assay: Antiproliferation activity against human MCF7 cells measured after 72 hrs incubation by MTT assay; format: functional, cell-based; settings: MCF7, 72 h
NCI/ADR-RES = assay: Antiproliferation activity against human MCF7/ADR cells measured after 72 hrs incubation by MTT assay; format: functional, cell-based
HepG2 [3] = assay: In vivo antitumor activity against human HepG2 cells xenografted in mouse assessed as inhibition of tumor growth treated iv every other day for 22 days; format: functional, organism-based; settings: time 22.0 day
[4] = Toxicity in mouse xenografted with human HepG2 cells assessed as body weight change at 10 to 20 mg/kg, iv every other day for 22 days; format: organism-based; settings: in vivo, 528 h, dose 10-20 mg/kg, time 22 day
HepG2 [5] = assay: In vivo antitumor activity against human HepG2 cells xenografted in mouse assessed as inhibition of tumor growth treated at 20 mg/kg, iv every other day for 22 days relative to control; format: functional; settings: HepG2, 528 h, time 22 day, read-out: TGI
[6] = Initial plasma concentration in Sprague-Dawley rat at 10 mg/kg, iv; format: ADME, organism-based
[7] = Half life in Sprague-Dawley rat at 10 mg/kg, iv; format: ADME, organism-based; settings: in vivo
[8] = Clearance in Sprague-Dawley rat at 10 mg/kg, iv; format: ADME, organism-based; settings: in vivo
[9] = AUC (0 to last) in Sprague-Dawley rat at 10 mg/kg, iv; format: ADME, organism-based; settings: in vivo
[10] = MRT (0 to last) in Sprague-Dawley rat at 10 mg/kg, iv; format: ADME, organism-based; settings: in vivo
MCF7 [11] = assay: Induction of cell cycle arrest in human MCF7 cells assessed as accumulation of cells at G2/M phase at 500 nM measured after 24 hrs by flow cytometry (reference value: 22.84%); format: functional
MCF7 [12] = assay: Induction of cell cycle arrest in human MCF7 cells assessed as accumulation of cells at G0/G1 phase at 500 nM measured after 24 hrs by flow cytometry (reference value: 61.73%); format: functional
HMEC-1 [13] = assay: Anti-proliferative activity against human HMEC-1 cells measured after 48 hrs; format: functional, cell-based; settings: HMEC-1, 48 h
MCF7 [14] = assay: Induction of apoptosis in human MCF7 cells assessed as viable cells at 50 nM measured after 48 hrs by AnnexinV/PI double staining assays (reference value: 91.20%); format: functional; settings: read-out: Activity
MCF7 [15] = assay: Induction of apoptosis in human MCF7 cells assessed as early apoptotic cells at 50 nM measured after 48 hrs by AnnexinV/PI double staining assays (reference value: 5.32%); format: functional
MCF7 [16] = assay: Induction of apoptosis in human MCF7 cells assessed as late apoptotic cells at 50 nM measured after 48 hrs by AnnexinV/PI double staining assays (reference value: 2.60%); format: functional
MCF7 [17] = assay: Induction of apoptosis in human MCF7 cells assessed as necrotic cells at 50 nM measured after 48 hrs by AnnexinV/PI double staining assays (reference value: 0.89%); format: functional
MCF7 [18] = assay: Induction of apoptosis in human MCF7 cells assessed as multinuclear cells at 50 nM measured after 24 hrs by fluorescent microscopy; format: functional, cell-based
HMEC-1 [19] = assay: Anti-migration activity in human HMEC-1 cells assessed as inhibition of cell migration at 5 nM measured after 48 hrs by Scratching assay; format: functional, cell-based
HMEC-1 [20] = assay: Angiogenic activity against human HMEC-1 cells assessed as decrease in vascular area measured after 48 hrs by Endothelial tube formation assay; format: functional, cell-based; settings: dose 1-100 nM

Row | Structure (SMILES) | solubility [1] | IC50 (Bel-7402) | IC50 (MDA-MB-231) | IC50 (MIA PaCa-2) | IC50 (NCI-H460) | IC50 (KB) | IC50 (L02) | further results
1 | COc1ccc(NS(=O)(=O)c2ccc3c(c2)c2ccc(NC(=O)CCN(C)C)cc2n3C)c(OC)n1.Cl | 11000 µg/mL | 5.02 µM |  |  |  |  |  | 
2 | COc1ccc(NS(=O)(=O)c2ccc3c(c2)c2ccc(NC(=O)CCCN4CCOCC4)cc2n3C)c(OC)n1.Cl | 6800 µg/mL | 8.47 µM |  |  |  |  |  | 
3 | COc1ccc(OC)c(NS(=O)(=O)c2ccc3c(c2)c2ccc(N)cc2n3C)c1 |  |  | 0.0189 µM | 0.0199 µM | 0.0255 µM | 0.0183 µM | 0.0116 µM | 
4 | CC(=O)O[C@H]1C(=O)[C@@]2(C)[C@H]([C@H](OC(=O)c3ccccc3)[C@]3(O)C[C@H](OC(=O)[C@H](O)[C@@H](NC(=O)c4ccccc4)c4ccccc4)C(C)=C1C3(C)C)[C@]1(OC(C)=O)CO[C@@H]1C[C@@H]2O [PACLITAXEL] |  |  |  |  |  |  |  | IC50 (MCF7 [2]): 0.0287 µM; IC50 (NCI/ADR-RES): 0.464 µM
5 | COc1cc(OC)c(NS(=O)(=O)c2ccc3c(c2)c2ccc(N)cc2n3C)c(OC)c1 |  |  | 0.0399 µM | 0.031 µM | 0.014 µM | 0.0181 µM | 0.0309 µM | 
6 | COc1ccc(NS(=O)(=O)c2ccc3c(c2)c2ccc(N)cc2n3C)cc1 |  |  | > 0.4 µM | > 0.4 µM | > 0.4 µM | > 0.4 µM | > 0.4 µM | 
7 | COc1ccc(NS(=O)(=O)c2ccc3c(c2)c2ccc(NC(=O)[C@@H](N)CO)cc2n3C)c(OC)n1.Cl | 2000 µg/mL | 1.45 µM |  |  |  |  |  | TGI (HepG2 [3]): Dose-Dependent Effect; Activity [4]: Non-Toxic
8 | COc1ccc(NS(=O)(=O)c2ccc3c(c2)c2ccc(NC(=O)CN4CCCCC4)cc2n3C)c(OC)n1.Cl | 4700 µg/mL | 8.21 µM |  |  |  |  |  | 
9 | COc1ccc(NS(=O)(=O)c2ccc3c(c2)c2ccc(NC(=O)CN4CCN(C)CC4)cc2n3C)c(OC)n1.Cl | 27000 µg/mL | 18.7 µM |  |  |  |  |  | 
10 | COc1ccc(NS(=O)(=O)c2ccc3c(c2)c2ccc(NC(=O)[C@@H](N)Cc4ccc(O)cc4)cc2n3C)c(OC)n1.Cl | 2000 µg/mL | 1.88 µM |  |  |  |  |  | 
11 | COc1cc(NS(=O)(=O)c2ccc3c(c2)c2ccc(O)cc2n3C)cc(OC)c1OC |  |  | 0.0393 µM | 0.0146 µM | 0.0346 µM | 0.032 µM | 0.0431 µM | 
12 | COc1ccc(NS(=O)(=O)c2ccc3c(c2)c2ccc(N)cc2n3C)c(OC)c1 |  |  | 0.155 µM | 0.0572 µM |  |  | 0.0422 µM | 
13 | COc1cc(NS(=O)(=O)c2ccc3c(c2)c2ccc(N)cc2n3C)c(OC)cc1N |  |  | 0.0857 µM | 0.0332 µM | 0.0764 µM | 0.0802 µM | 0.0309 µM | 
14 | COc1cc([C@@H]2c3cc4c(cc3[C@H](O)[C@H]3COC(=O)[C@H]23)OCO4)cc(OC)c1OC [PODOFILOX] |  | 0.04 µM | 0.0805 µM | 0.0197 µM | 0.0246 µM | 0.00321 µM | 0.0328 µM | 
15 | CN1CCN(Cc2ccc(NS(=O)(=O)c3ccc4c(c3)c3ccc(O)cc3n4C)cc2C(F)(F)F)CC1 |  |  |  | > 0.4 µM | > 0.4 µM | > 0.4 µM | > 0.4 µM | 
16 | COc1ccc(/C=C\c2cc(OC)c(OC)c(OC)c2)cc1O [COMBRETASTATIN A4] |  |  |  |  |  |  |  | IC50 (MCF7 [2]): 0.0327 µM; IC50 (NCI/ADR-RES): 0.0125 µM; Activity (MCF7 [11]): 3.4%; Activity (MCF7 [12]): 3.41%; IC50 (HMEC-1 [13]): 0.00642 µM
17 | COc1ccc(NS(=O)(=O)c2ccc3c(c2)c2ccc(NC(=O)CN(C)C)cc2n3C)c(OC)n1.Cl | 25000 µg/mL | 1.4 µM |  |  |  |  |  | 
18 | Cn1c2ccc(S(=O)(=O)Nc3cccc(-c4ccn[nH]4)c3)cc2c2ccc(N)cc21 |  |  | 0.0725 µM | 0.0612 µM | 0.325 µM | 0.244 µM | 0.0945 µM | 

Now from value to compound, other results behind:

Row | solubility [1] | IC50 (Bel-7402) | IC50 (MDA-MB-231) | IC50 (MIA PaCa-2) | IC50 (NCI-H460) | IC50 (KB) | Structure (SMILES) | IC50 (L02) | further results
19 | 13000 µg/mL | 13.7 µM |  |  |  |  | COc1ccc(NS(=O)(=O)c2ccc3c(c2)c2ccc(NC(=O)CCN4CCOCC4)cc2n3C)c(OC)n1.Cl |  | 
20 | < 100 µg/mL | 0.52 µM | 0.0354 µM | 0.0583 µM | 0.033 µM | 0.0404 µM | COc1ccc(NS(=O)(=O)c2ccc3c(c2)c2ccc(N)cc2n3C)c(OC)n1 | 0.109 µM | 
21 |  |  | 0.0828 µM | 0.0528 µM | 0.0405 µM | 0.0788 µM | COc1ccc(NS(=O)(=O)c2ccc3c(c2)c2ccc(O)cc2n3C)c(OC)c1 | 0.0544 µM | 
22 |  |  | 0.029 µM | 0.0133 µM | 0.0475 µM | 0.046 µM | COc1cc(OC)c(NS(=O)(=O)c2ccc3c(c2)c2ccc(N)cc2n3C)cc1Cl | 0.018 µM | 
23 |  |  | 0.0161 µM | 0.0244 µM | 0.0131 µM | 0.0345 µM | COc1cc(NS(=O)(=O)c2ccc3c(c2)c2ccc(N)cc2n3C)cc(OC)c1OC | 0.021 µM | 
24 | 4000 µg/mL | 0.48 µM |  |  |  |  | COc1ccc(NS(=O)(=O)c2ccc3c(c2)c2ccc(NC(=O)[C@@H](N)C(C)C)cc2n3C)c(OC)n1.Cl |  | TGI (HepG2 [3]): Dose-Dependent Effect; inhibition in vivo at 20 mg/kg (HepG2 [5]): 71%; Activity [4]: Non-Toxic; C0 [6]: 22000 ng/mL; half-life [7]: 34.4 min; clearance [8]: 72.9 mL/min/kg; AUC(0-t) [9]: 2290 ng·h/mL; MRT last [10]: 7.26 min
25 | 500 µg/mL | 1.2 µM |  |  |  |  | COc1ccc(NS(=O)(=O)c2ccc3c(c2)c2ccc(NC(=O)CN)cc2n3C)c(OC)n1.Cl |  | 
26 |  |  | 0.0416 µM | 0.0555 µM | 0.0145 µM | 0.07 µM | COc1cc(OC)c(NS(=O)(=O)c2ccc3c(c2)c2ccc(O)cc2n3C)cc1Cl | 0.033 µM | 
27 |  |  | 0.00093 µM | 0.00085 µM | 0.0125 µM | 0.0175 µM | COc1ccc(OC)c(NS(=O)(=O)c2ccc3c(c2)c2ccc(O)cc2n3C)c1 | 0.0456 µM | 
28 | < 100 µg/mL |  | 0.0984 µM | 0.0518 µM | 0.0438 µM | 0.104 µM | COc1ccc(NS(=O)(=O)c2ccc3c(c2)c2ccc(O)cc2n3C)c(OC)n1 | 0.0516 µM | IC50 (MCF7 [2]): 0.0415 µM; IC50 (NCI/ADR-RES): 0.0882 µM; viability at 0.05 µM (MCF7 [14]): 45.6%; Activity (MCF7 [15]): 39.03%; Activity (MCF7 [16]): 5.65%; Activity (MCF7 [17]): 0.04%; Activity (MCF7 [18]): Active; IC50 (HMEC-1 [13]): 0.00642 µM; inhibition (HMEC-1 [19]): Active; Activity (HMEC-1 [20]): Dose-Dependent Effect
